Test results reported in article PMC10485906, “Development of a Dihydroquinoline–Pyrazoline GluN2C/2D-Selective Negative Allosteric Modulator of the N-Methyl-D-aspartate Receptor” (ACS Chemical Neuroscience, 2023).
“And” between values parts separate entries of the source, which are not always exact repeats. Equal entries are not always repeated. Marks after values point to notes of the source that are not given here.

Tests used:
Assay type in all cases: cell-based
Design in all cases: GluN2B (NM_012574.1), GluN2C (NM_012575.3), and GluN2D (NM_022797.2) were provided by; expressed in transfected cells; host or cells: Xenopus laevis oocytes (cRNA injection)
GluN1/GluN2D [1] = molecular target: GluN1/GluN2D (Rattus norvegicus, UniProt P35439+Q62645); test: Two-electrode voltage-clamp recordings, Xenopus laevis oocytes, GluN1/GluN2D; conditions: 100 μM glutamate, 30 μM glycine; for IC50: read-out: IC50 GluN2D [95% CI]; for remaining activity at 30 µM: 30 μM test compound, mean ± SEM, read-out: I 30 μM / I control GluN2D
GluN1/GluN2D (Rattus norvegicus, UniProt P35439+Q62645), sequence (Q62645 28-1323, other chains not shown): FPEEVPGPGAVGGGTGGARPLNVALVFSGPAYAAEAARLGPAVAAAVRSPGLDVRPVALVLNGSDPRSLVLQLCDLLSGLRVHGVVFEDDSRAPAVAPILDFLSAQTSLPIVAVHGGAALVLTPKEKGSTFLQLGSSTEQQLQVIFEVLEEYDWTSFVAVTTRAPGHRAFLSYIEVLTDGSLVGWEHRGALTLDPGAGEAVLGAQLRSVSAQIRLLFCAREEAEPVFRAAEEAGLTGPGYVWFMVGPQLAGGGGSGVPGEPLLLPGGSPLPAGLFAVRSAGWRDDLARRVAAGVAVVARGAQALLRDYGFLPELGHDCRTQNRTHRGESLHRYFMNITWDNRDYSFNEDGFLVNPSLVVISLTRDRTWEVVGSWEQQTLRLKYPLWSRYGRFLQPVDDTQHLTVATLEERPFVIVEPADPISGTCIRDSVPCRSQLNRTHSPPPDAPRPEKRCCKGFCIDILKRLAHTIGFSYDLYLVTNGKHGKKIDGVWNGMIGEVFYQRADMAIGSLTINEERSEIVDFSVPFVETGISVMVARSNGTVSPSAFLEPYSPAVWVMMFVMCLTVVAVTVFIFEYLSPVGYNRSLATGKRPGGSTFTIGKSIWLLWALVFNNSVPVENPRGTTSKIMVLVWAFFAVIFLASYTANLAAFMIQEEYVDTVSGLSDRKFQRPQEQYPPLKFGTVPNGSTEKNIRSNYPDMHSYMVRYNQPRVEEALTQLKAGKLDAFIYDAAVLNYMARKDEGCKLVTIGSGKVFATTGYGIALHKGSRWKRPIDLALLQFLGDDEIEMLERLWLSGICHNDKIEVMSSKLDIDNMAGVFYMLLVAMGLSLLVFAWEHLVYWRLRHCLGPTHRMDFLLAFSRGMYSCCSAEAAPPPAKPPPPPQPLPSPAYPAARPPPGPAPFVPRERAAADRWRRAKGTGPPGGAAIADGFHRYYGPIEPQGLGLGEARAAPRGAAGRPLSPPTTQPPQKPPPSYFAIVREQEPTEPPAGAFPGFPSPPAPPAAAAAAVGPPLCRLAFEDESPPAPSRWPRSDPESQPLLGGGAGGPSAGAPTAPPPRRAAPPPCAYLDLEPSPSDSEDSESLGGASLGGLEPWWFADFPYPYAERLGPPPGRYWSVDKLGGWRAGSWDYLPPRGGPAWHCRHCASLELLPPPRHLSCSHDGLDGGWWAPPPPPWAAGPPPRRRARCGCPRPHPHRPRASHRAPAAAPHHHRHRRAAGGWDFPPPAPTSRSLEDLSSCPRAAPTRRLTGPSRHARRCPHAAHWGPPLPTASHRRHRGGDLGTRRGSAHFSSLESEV
Description: (§1) All target compounds were evaluated for NMDAR antagonism using two-electrode voltage-clamp recordings from Xenopus laevis oocytes coexpressing recombinant GluN1 and GluN2A-D subunits (Table 1).[32],[42],[33] All analogues were assessed as either a racemic (2b, 2e–2r) or diastereomeric (2d) mixture to simplify purification and streamline in vitro analysis. […] Moreover, as illustrated by the significant loss of NMDAR activity observed with nitrile 2e, the DQP allosteric site necessitated an H-bond donor/acceptor relationship at the carboxylate position. […] The loss of NMDAR activity observed with the trifluoro analogue 2j (Table S1) reinforced the necessity for an H-bond donor/acceptor relationship to maintain allosteric binding and established that fluorine substitution alone is ineffective. […] A single methyl substitution of the amide in compound 2q improved selectivity against GluN2A and had similar potency as 2a, whereas dual methyl substitution reduced potency (2r). We expect that this is likely due to the ability of the […] of the amide to accept hydrogen bonds while the amide can readily donate a proton.
(§2) Unfertilized Xenopus laevis oocytes were obtained from Ecocyte (Austin, TX), or ovaries were purchased from Xenopus 1 (Dexter, MI) and oocytes prepared as previously described.[42],[47] Two-electrode voltage-clamp recordings were performed on oocytes expressing recombinant rat GluN1/GluN2A, GluN1/GluN2B, GluN1/GluN2C, or GluN1/GluN2D. cDNAs for rat GluN1-1a (referred to as GluN1; NCBI Reference Sequence NM_017010.2), GluN2A (NM_012573.4), GluN2B (NM_012574.1), GluN2C (NM_012575.3), and GluN2D (NM_022797.2) were provided by Dr. S. Heinemann from the Salk Institute, Dr. S. Nakanishi from Kyoto University, and Dr. P. Seeburg from the University of Heidelberg. Oocyte isolation, cRNA synthesis, and cRNA injections were performed as previously described.[32],[33],[47] Briefly, Xenopus laevis oocytes were injected with 5–10 ng of cRNA in RNase-free water with the GluN1:GluN2 ratio ranging from 1:1 to 1:5. Oocytes were incubated at 15–19 °C in Barth’s solution consisting of (in mM) 88 NaCl, 1 KCl, 2.4 NaHCO3, 10 HEPES, 0.82 MgSO4, 0.33 Ca(NO3)2, and 0.41 CaCl2 supplemented with 100 μg/mL gentamycin, 40 μg/mL streptomycin, and 50 μg/mL penicillin. Recordings were performed 2–4 days after injection with extracellular recording solution containing (in mM) 90 NaCl, 1 KCl, 10 HEPES, 0.5 BaCl2, and 0.01 EDTA at pH 7.4 adjusted with NaOH. To prevent a gradual increase in current response over the course of the experiment, some oocytes expressing GluN1/GluN2A were injected with 20–50 nL of 2–50 mM K-BAPTA. Concentration–response curves for test compounds were generated by applying a maximally effective concentration of glutamate (100 μM) and glycine (30 μM), followed by glutamate and glycine with variable concentrations of test compounds up to 30 μM. The test compounds were prepared as 20 mM stock solutions in DMSO and diluted to the final concentration in recording solution. The DMSO content was 0.05–0.5% (v/v). […] Methods for off-target analysis are given in the Supporting Information.
(§3) Confidence intervals were determined for the log(IC50). The time course of relaxation during inhibitor application or deactivation following rapid removal of NMDA or glutamate was fitted by the equation [drawing 5] 2

GluN1/GluN2D [2] = molecular target: GluN1/GluN2D (Rattus norvegicus, UniProt Q62645); test: as above; conditions: for Selectivity 2A IC50 / 2D IC50: GluN2D over GluN2A; for Selectivity 2B IC50 / 2D IC50: GluN2D over GluN2B; for I3 μM/Icontrol GluN2D: tested at 3 μM; for I3 μM/Icontrol GluN2D / I / I control GluN2D: 100 μM glutamate, 30 μM glycine; for I / I control GluN2D: tested at 10 μM (footnote b)
GluN1/GluN2D (Rattus norvegicus, UniProt Q62645), sequence (Q62645 28-1323, other chains not shown): as above
Description: as §1, §2, §3

GluN1/GluN2C [3] = molecular target: GluN1/GluN2C (Rattus norvegicus, UniProt Q00961); test: Two-electrode voltage-clamp recordings, Xenopus laevis oocytes, GluN1/GluN2C; conditions: for I3 μM/Icontrol GluN2C: tested at 3 μM; for I3 μM/Icontrol GluN2C / I / I control GluN2C: 100 μM glutamate, 30 μM glycine; for I / I control GluN2C: tested at 10 μM (footnote b)
GluN1/GluN2C (Rattus norvegicus, UniProt Q00961), sequence (Q00961 20-1237, other chains not shown): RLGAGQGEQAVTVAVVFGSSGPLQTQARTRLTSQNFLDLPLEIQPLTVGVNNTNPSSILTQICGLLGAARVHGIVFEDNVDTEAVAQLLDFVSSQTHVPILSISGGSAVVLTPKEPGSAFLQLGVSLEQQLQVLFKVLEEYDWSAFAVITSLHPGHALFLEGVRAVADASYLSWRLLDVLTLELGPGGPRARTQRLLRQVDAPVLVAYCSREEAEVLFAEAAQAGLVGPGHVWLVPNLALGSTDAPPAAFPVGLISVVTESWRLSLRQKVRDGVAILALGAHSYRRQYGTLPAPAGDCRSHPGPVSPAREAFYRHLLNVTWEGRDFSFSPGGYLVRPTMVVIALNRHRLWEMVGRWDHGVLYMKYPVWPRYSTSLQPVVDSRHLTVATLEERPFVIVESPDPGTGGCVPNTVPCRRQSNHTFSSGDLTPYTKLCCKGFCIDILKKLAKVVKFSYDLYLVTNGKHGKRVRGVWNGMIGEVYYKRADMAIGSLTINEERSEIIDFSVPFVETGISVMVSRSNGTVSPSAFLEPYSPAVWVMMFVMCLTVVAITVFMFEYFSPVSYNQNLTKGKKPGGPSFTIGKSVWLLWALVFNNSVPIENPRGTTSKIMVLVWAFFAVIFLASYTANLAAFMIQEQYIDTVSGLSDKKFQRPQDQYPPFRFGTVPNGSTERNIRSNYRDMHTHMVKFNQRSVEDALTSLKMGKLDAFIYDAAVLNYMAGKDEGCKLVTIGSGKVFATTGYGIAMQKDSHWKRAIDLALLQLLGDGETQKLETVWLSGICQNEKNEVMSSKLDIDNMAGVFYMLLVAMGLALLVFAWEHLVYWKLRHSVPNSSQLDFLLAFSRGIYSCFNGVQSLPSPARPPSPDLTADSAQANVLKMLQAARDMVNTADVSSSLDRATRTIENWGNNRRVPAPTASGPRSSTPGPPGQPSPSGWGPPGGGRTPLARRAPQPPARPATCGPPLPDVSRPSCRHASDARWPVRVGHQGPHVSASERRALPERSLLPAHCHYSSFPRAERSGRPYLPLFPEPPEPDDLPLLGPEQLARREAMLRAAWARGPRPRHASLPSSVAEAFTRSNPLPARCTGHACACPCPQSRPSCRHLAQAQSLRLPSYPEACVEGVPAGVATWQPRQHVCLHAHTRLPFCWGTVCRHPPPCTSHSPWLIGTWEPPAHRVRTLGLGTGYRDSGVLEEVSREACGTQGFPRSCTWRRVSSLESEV
Description: as §1, §2, §3

GluN1/GluN2C [4] = molecular target: GluN1/GluN2C (Rattus norvegicus, UniProt P35439+Q00961); test: as above; conditions: 100 μM glutamate, 30 μM glycine; for IC50: read-out: IC50 GluN2C [95% CI]; for remaining activity at 30 µM: 30 μM test compound, mean ± SEM, read-out: I 30 μM / I control GluN2C
GluN1/GluN2C (Rattus norvegicus, UniProt P35439+Q00961), sequence (Q00961 20-1237, other chains not shown): as above
Description: as §1, §2, §3

[5] = mean ± SEM, listed as racemic 2i
[6] = 1 µM compound, 100 µM glutamate, 30 µM glycine, mean ± SEM

SMILES | IC50 (GluN1/GluN2D [1]) [nM] | Selectivity 2A IC50 / 2D IC50 (GluN1/GluN2D [2]) [fold] | Selectivity 2B IC50 / 2D IC50 (GluN1/GluN2D [2]) [fold] | I3 μM/Icontrol GluN2D (GluN1/GluN2D [2]; mean ± SEM) | I3 μM/Icontrol GluN2C (GluN1/GluN2C [3]; mean ± SEM) | IC50 (GluN1/GluN2C [4]) [nM] | remaining activity at 30 µM (GluN1/GluN2D [1]) [%] | remaining activity at 30 µM (GluN1/GluN2C [4]) [%] | I / I control GluN2D (GluN1/GluN2D [2]; mean ± SEM) | I / I control GluN2C (GluN1/GluN2C [3]; mean ± SEM) | also measured
O=C(O)CC(F)(F)C(=O)N1N=C(c2c(-c3ccc(Cl)cc3)c3ccccc3[nH]c2=O)CC1c1ccc(Cl)cc1 (centres unmarked) [2i] | 130 | 43 | 123 | 12 ± 1.8% and 12 ± 1.8 ^b (2,16) % | 13 ± 2.5% and 13 ± 2.5 ^b (2,12) % | 350 | – | – | – | – | I3 μM/Icontrol GluN2D (GluN1/GluN2D [2]; [5]): 12 ± 1.8 (2, 16) %; I3 μM/Icontrol GluN2C (GluN1/GluN2C [3]; [5]): 13 ± 2.5 (2, 12) %
NC(=O)CC(F)(F)C(=O)N1N=C(c2c(-c3ccc(Cl)cc3)c3ccccc3[nH]c2=O)CC1c1ccc(Cl)cc1 (centres unmarked) [2k] | 240 | 24 | 13 | 16 ± 2.3 ^b (3,17) % | 22 ± 5.2 ^b (3,16) % | 380 | – | – | – | – | –
CCOC(=O)CC(F)(F)C(=O)N1N=C(c2c(-c3ccc(Cl)cc3)c3ccccc3[nH]c2=O)CC1c1ccc(Cl)cc1 (centres unmarked) [2l] | – | – | – | – | – | – | 87 ± 0.8 | 93 ± 0.7 | – | – | –
CC(C)OC(=O)CC(F)(F)C(=O)N1N=C(c2c(-c3ccc(Cl)cc3)c3ccccc3[nH]c2=O)CC1c1ccc(Cl)cc1 (centres unmarked) [2m] | – | – | – | – | – | – | 92 ± 3.1 | 90 ± 4.3 | – | – | –
O=C(CC(F)(F)C(=O)N1N=C(c2c(-c3ccc(Cl)cc3)c3ccccc3[nH]c2=O)CC1c1ccc(Cl)cc1)OCC1CC1 (centres unmarked) [2n] | – | – | – | – | – | – | 92 ± 2.7 | 93 ± 4.2 | – | – | –
CC(C)(C)COC(=O)CC(F)(F)C(=O)N1N=C(c2c(-c3ccc(Cl)cc3)c3ccccc3[nH]c2=O)CC1c1ccc(Cl)cc1 (centres unmarked) [2o] | – | – | – | – | – | – | – | – | 82 ± 0.7% | 87 ± 0.8% | –
O=C(CC(F)(F)C(=O)N1N=C(c2c(-c3ccc(Cl)cc3)c3ccccc3[nH]c2=O)CC1c1ccc(Cl)cc1)OCc1ccccc1 (centres unmarked) [2p] | – | – | – | – | – | – | 96 ± 0.53 | 98 ± 0.95 | – | – | –
CNC(=O)CC(F)(F)C(=O)N1N=C(c2c(-c3ccc(Cl)cc3)c3ccccc3[nH]c2=O)CC1c1ccc(Cl)cc1 (centres unmarked) [2q] | 410 | 90 | 49 | – | – | 670 | – | – | 12 ± 1.5 ^b (3, 18) % | 16 ± 1.6 ^b (3, 20) % | –
CN(C)C(=O)CC(F)(F)C(=O)N1N=C(c2c(-c3ccc(Cl)cc3)c3ccccc3[nH]c2=O)CC1c1ccc(Cl)cc1 (centres unmarked) [2r] | 1400 | – | – | – | – | 4100 | – | – | 19 ± 1.6 ^b (3,14) % | 28 ± 2.2 ^b (4,20) % | –
O=C(O)CC(F)(F)C(=O)N1N=C(c2c(-c3ccc(Cl)cc3)c3ccccc3[nH]c2=O)C[C@H]1c1ccc(Cl)cc1 [(S)-(−)-2i] | 35 | 134 | 457 | 3.8 ± 0.60 (4, 25) % | 13 ± 2.6 (3, 16) % | 61 | – | – | – | – | % control GluN1/GluN2D (GluN1/GluN2D [2]; [6]): 4.3 ± 0.73%; fold more potent than (S)-2a (GluN1/GluN2D [2]; abstract): 5 fold; % control GluN1/GluN2C (GluN1/GluN2C [3]; [6]): 16 ± 2.9%; selectivity for GluN2C-containing NMDARs compared to GluN2A- and GluN2B-containing receptors (GluN1/GluN2C [3]; abstract): > 100 fold
